Key:
Staphylococcus aureus [1] = assay: Antimicrobial activity against Staphylococcus aureus USA300 isolate harboring pSK41 plasmid expressing ermC gene assessed resistant isolates; assay type: functional
Staphylococcus aureus [2] = assay: Antimicrobial activity against Staphylococcus aureus USA300 isolate harboring pSK41 plasmid assessed resistant isolates; assay type: functional
Staphylococcus aureus [3] = assay: Antimicrobial activity against Staphylococcus aureus USA300 isolate harboring pSK41 plasmid expressing tetK gene assessed resistant isolates; assay type: functional
Staphylococcus aureus [4] = assay: Antimicrobial activity against Staphylococcus aureus USA300 isolate harboring pSK41 plasmid expressing aac'-aph'''' gene assessed resistant isolates; assay type: functional, organism-based

| Compound | Activity (Staphylococcus aureus [2]) [%] | other results |
| --- | --- | --- |
| CCC[C@@H]1C[C@@H](C(=O)N[C@@H]([C@H]2O[C@H](SC)[C@H](O)[C@@H](O)[C@H]2O)[C@H](C)Cl)N(C)C1 [CLINDAMYCIN] |  | Activity (Staphylococcus aureus [1]): 6.2% |
| CC[C@H]1OC(=O)[C@H](C)[C@@H](O[C@H]2C[C@@](C)(OC)[C@@H](O)[C@H](C)O2)[C@H](C)[C@@H](O[C@@H]2O[C@H](C)C[C@H](N(C)C)[C@H]2O)[C@](C)(O)C[C@@H](C)C(=O)[C@H](C)[C@@H](O)[C@]1(C)O [ERYTHROMYCIN] | 85 |  |
| C[C@H]1COc2c(N3CCN(C)CC3)c(F)cc3c(=O)c(C(=O)O)cn1c23.C[C@H]1COc2c(N3CCN(C)CC3)c(F)cc3c(=O)c(C(=O)O)cn1c23.O [LEVOFLOXACIN] | 45 |  |
| Cc1onc(-c2ccccc2)c1C(=O)N[C@@H]1C(=O)N2[C@@H]1SC(C)(C)[C@@H]2C(=O)O [OXACILLIN] | 100 |  |
| CC1(C)S[C@@H]2[C@H](NC(=O)Cc3ccccc3)C(=O)N2[C@H]1C(=O)O [PENICILLIN G] | 100 |  |
| CN(C)[C@@H]1C(O)=C(C(N)=O)C(=O)[C@@]2(O)C(O)=C3C(=O)c4c(O)cccc4[C@@](C)(O)[C@H]3C[C@@H]12 [TETRACYCLINE] |  | Activity (Staphylococcus aureus [3]): 8.4% |
| GENTAMICIN |  | Activity (Staphylococcus aureus [4]): 1% |

Reference: ChEMBL document CHEMBL1671712, “Emergence of resistance among USA300 methicillin-resistant Staphylococcus aureus isolates causing invasive disease in the United States” (2010)
